Reference: paper PMC5007552, “The hVps34‐SGK3 pathway alleviates sustained PI3K/Akt inhibition by stimulating mTORC1 and tumour growth” (The EMBO Journal, 2016)
“And” between values parts separate entries of the source, which are not always exact repeats. Equal values may be shown once.

System: ZR-75-1 cells
Test: NanoString human kinome mRNA quantification
Format: cell-based
Text: Human mRNAs were hybridised to NanoString human kinome and control code sets, then subjected to quantification using NanoString software. […] To permit data compaction, and simple kinome‐wide comparisons, the fold changes are log2 transformed. […] Cell pellets were resuspended at a concentration of ~6,500 cells/μl in RLT buffer (Qiagen). […] For total copy numbers, triplicate normalised count values were averaged, and to calculate fold induction, means were divided by triplicate mean values from matched DMSO controls. P‐values were calculated using unpaired t‐test (GraphPad Prism software) by employing treated and control count data for each kinase mRNA.

NC1(c2ccc(-c3nc4ccn5c(=O)[nH]nc5c4cc3-c3ccccc3)cc2)CCC1 [MK-2206]
rank of SGK3 mRNA expression in the 536-member kinase panel (1 μM, day 5, ZR-75-1, DMSO control 230th): 94
AAK1 Average normalised counts (AAK1 mRNA, average of 3 replicates): 782.49
AAK1 Normalised counts (AAK1 mRNA, single replicates): 765.01 and 806.95 and 775.51
AATK Average normalised counts (AATK mRNA, average of 3 replicates): 168.267
AATK Normalised counts (AATK mRNA, single replicates): 168.73 and 152.79 and 183.28
ABL1 Average normalised counts (ABL1 mRNA, average of 3 replicates): 597.787
ABL1 Normalised counts (ABL1 mRNA, single replicates): 594.12 and 597.59 and 601.65
ABL2 Average normalised counts (ABL2 mRNA, average of 3 replicates): 904.847
ABL2 Normalised counts (ABL2 mRNA, single replicates): 861.36 and 926.84 and 926.34
ACVR1B Normalised counts (ACVR1B mRNA, single replicates): 285.69
ACVR1C Average normalised counts (ACVR1C mRNA, average of 3 replicates): 2.92
ACVR1C Normalised counts (ACVR1C mRNA, single replicates): 2.39 and 2.5 and 3.87
ACVR1 Normalised counts (ACVR1 mRNA, single replicates): 276.15 and 273.79
ACVR2A Average normalised counts (ACVR2A mRNA, average of 3 replicates): 137.863
ACVR2A Normalised counts (ACVR2A mRNA, single replicates): 146 and 131.94 and 135.65
ACVR2B Average normalised counts (ACVR2B mRNA, average of 3 replicates): 119.837
ACVR2B Normalised counts (ACVR2B mRNA, single replicates): 122.37 and 110.22 and 126.92
ACVRL1 Average normalised counts (ACVRL1 mRNA, average of 3 replicates): 5.713
ACVRL1 Normalised counts (ACVRL1 mRNA, single replicates): 4.2 and 5.1 and 7.84
ADCK1 Average normalised counts (ADCK1 mRNA, average of 3 replicates): 103.98
ADCK1 Normalised counts (ADCK1 mRNA, single replicates): 96.01 and 112.83 and 103.1
ADCK2 Average normalised counts (ADCK2 mRNA, average of 3 replicates): 571.397
ADCK2 Normalised counts (ADCK2 mRNA, single replicates): 535.04 and 567.18 and 611.97
ADCK3 Average normalised counts (ADCK3 mRNA, average of 3 replicates): 173.12
ADCK3 Normalised counts (ADCK3 mRNA, single replicates): 181.45 and 164.95 and 172.96
ADCK4 Average normalised counts (ADCK4 mRNA, average of 3 replicates): 488.637
ADCK4 Normalised counts (ADCK4 mRNA, single replicates): 486.86 and 483.78 and 495.27
ADCK5 Average normalised counts (ADCK5 mRNA, average of 3 replicates): 272.407
ADCK5 Normalised counts (ADCK5 mRNA, single replicates): 276.89 and 275.28
ADRBK1 Average normalised counts (ADRBK1 mRNA, average of 3 replicates): 4377.38
ADRBK1 Normalised counts (ADRBK1 mRNA, single replicates): 4312.7 and 4473.91 and 4345.53
ADRBK2 Average normalised counts (ADRBK2 mRNA, average of 3 replicates): 361.227
ADRBK2 Normalised counts (ADRBK2 mRNA, single replicates): 361.43 and 359.55 and 362.7
AKT1 Average normalised counts (AKT1 mRNA, average of 3 replicates): 6880.64
AKT1 Normalised counts (AKT1 mRNA, single replicates): 6785.99 and 6852.52 and 7003.4
AKT2 Average normalised counts (AKT2 mRNA, average of 3 replicates): 2329.47
AKT2 Normalised counts (AKT2 mRNA, single replicates): 2337.52 and 2309.87 and 2341.02
AKT3 Average normalised counts (AKT3 mRNA, average of 3 replicates): 1.89
AKT3 Normalised counts (AKT3 mRNA, single replicates): 2.39 and 1 and 2.28
ALK Average normalised counts (ALK mRNA, average of 3 replicates): 1
ALK Normalised counts (ALK mRNA, single replicates): 1
ALPK2 Average normalised counts (ALPK2 mRNA, average of 3 replicates): 16.6133
ALPK2 Normalised counts (ALPK2 mRNA, single replicates): 12.38 and 22.48 and 14.98
ALPK3 Average normalised counts (ALPK3 mRNA, average of 3 replicates): 74.1967
ALPK3 Normalised counts (ALPK3 mRNA, single replicates): 85.1 and 68.52 and 68.97
AMHR2 Average normalised counts (AMHR2 mRNA, average of 3 replicates): 1
AMHR2 Normalised counts (AMHR2 mRNA, single replicates): 1
ANKK1 Average normalised counts (ANKK1 mRNA, average of 3 replicates): 2.167
ANKK1 Normalised counts (ANKK1 mRNA, single replicates): 1 and 1.63 and 3.87
ARAF Average normalised counts (ARAF mRNA, average of 3 replicates): 918.807
ARAF Normalised counts (ARAF mRNA, single replicates): 894.08 and 950.29 and 912.05
ATM Average normalised counts (ATM mRNA, average of 3 replicates): 3.063
ATM Normalised counts (ATM mRNA, single replicates): 5.11 and 1 and 3.08
ATR Average normalised counts (ATR mRNA, average of 3 replicates): 668.797
ATR Normalised counts (ATR mRNA, single replicates): 672.29 and 661 and 673.1
AURKA Average normalised counts (AURKA mRNA, average of 3 replicates): 948.07
AURKA Normalised counts (AURKA mRNA, single replicates): 903.17 and 1006.76 and 934.28
AURKB Average normalised counts (AURKB mRNA, average of 3 replicates): 1225.21
AURKB Normalised counts (AURKB mRNA, single replicates): 1232.22 and 1235.24 and 1208.17
AURKC Average normalised counts (AURKC mRNA, average of 3 replicates): 8.06
AURKC Normalised counts (AURKC mRNA, single replicates): 7.84 and 7.71 and 8.63
AXL Average normalised counts (AXL mRNA, average of 3 replicates): 5.22
AXL Normalised counts (AXL mRNA, single replicates): 3.29 and 7.71 and 4.66
BCKDK Average normalised counts (BCKDK mRNA, average of 3 replicates): 3561.04
BCKDK Normalised counts (BCKDK mRNA, single replicates): 3631.88 and 3513.08 and 3538.17
BCR Average normalised counts (BCR mRNA, average of 3 replicates): 1460.29
BCR Normalised counts (BCR mRNA, single replicates): 1503.09 and 1393.35 and 1484.43
BLK Average normalised counts (BLK mRNA, average of 3 replicates): 26.4533
BLK Normalised counts (BLK mRNA, single replicates): 26.93 and 30.3 and 22.13
BMP2K Average normalised counts (BMP2K mRNA, average of 3 replicates): 406.717
BMP2K Normalised counts (BMP2K mRNA, single replicates): 374.15 and 422.97 and 423.03
BMPR1A Average normalised counts (BMPR1A mRNA, average of 3 replicates): 4758.43
BMPR1A Normalised counts (BMPR1A mRNA, single replicates): 4812.63 and 4697.18 and 4765.49
BMPR1B Average normalised counts (BMPR1B mRNA, average of 3 replicates): 1516.82
BMPR1B Normalised counts (BMPR1B mRNA, single replicates): 1517.63 and 1515.84 and 1516.98
BMPR2 Average normalised counts (BMPR2 mRNA, average of 3 replicates): 568.93
BMPR2 Normalised counts (BMPR2 mRNA, single replicates): 569.58 and 587.16 and 550.05
BMX Average normalised counts (BMX mRNA, average of 3 replicates): 1
BMX Normalised counts (BMX mRNA, single replicates): 1
BRAF Average normalised counts (BRAF mRNA, average of 3 replicates): 627.873
BRAF Normalised counts (BRAF mRNA, single replicates): 623.21 and 634.94 and 625.47
BRD2 Average normalised counts (BRD2 mRNA, average of 3 replicates): 2991.5
BRD2 Normalised counts (BRD2 mRNA, single replicates): 2957.43 and 3009.21 and 3007.86
BRD3 Average normalised counts (BRD3 mRNA, average of 3 replicates): 697.943
BRD3 Normalised counts (BRD3 mRNA, single replicates): 683.2 and 692.28 and 718.35
BRD4 Average normalised counts (BRD4 mRNA, average of 3 replicates): 2588.8
